Source: US20110053897A1 (IRM LLC, priority 2009, published 2011)

biological target: T1, Syk kinase (Homo sapiens, UniProt P43405); assay: Syk kinase inhibition, Caliper LabChip off-chip mobility-shift kinase assay; format: biochemical; details: Caliper LabChip assay; read-out: Syk Enzyme IC50
T1 construct: purchased
Method: Compounds of the examples and Table 1 provided herein were assayed to measure their capacity to inhibit Syk kinase.
Compounds of the examples and Table 1 provided herein were assessed for their ability to inhibit Syk kinase by utilizing Caliper Life Sciences' proprietary LabChip™ technology. The off-chip incubation mobility-shift kinase assay uses a microfluidic chip to measure the conversion of a fluorescent peptide substrate to a phosphorylated product. The reaction mixture, from a microtiter plate well, is introduced through a capillary sipper onto the chip, where the nonphosphorylated substrate and phosphorylated product are separated by electrophoresis and detected via laser induced fluorescence. […] The phosphorylated product migrates through the chip faster than the non-phosphorylated substrate, and signals from the two forms of the peptide appear as distinct peaks. Caliper's data analysis software (HTSWA) determines peak heights, from which the ratio of product to the peak sum P/(P+S) and percent (%) conversion is calculated. This value is used to compare compound wells to control wells present on the plate, and thereby determine the % inhibition values for the compound. The formula used to calculate % inhibition is as follows, where C100% is the average % conversion of the 100% activity wells and Co% is the average % conversion of the 0% activity wells: (1−(% conversionofsample−C0%)/(C100%−C0%))*100.
Compounds (10 mM stocks in 100% DMSO) are diluted to a final concentration of 5 μM for single point inhibition experiments, and a series dilution of 10, 3, 1, 0.3, 0.1, 0.03, 0.01, 0.003, 0.001, 0.0003, 0.0001, and 0.00003 μM were made for IC50 determination. Generally, 12 μL of enzyme buffer containing purified kinase (various amount; various suppliers), 100 mM HEPES, pH 7.5, 1 mM DTT (Calbiochem, 2333153), 10 mM MgCl2 (Sigma, M-1028) or 10 mM MnCl2 (Sigma, M-1787) (assay specific), and 0.002% Brij-35 (Sigma, B4184) are added to each well. Compound and enzyme are allowed to pre-incubate for 15 minutes. 12 μL of peptide/ATP buffer containing 100 mM HEPES, pH 7.5, 1.5 μM fluorescein-labeled peptide (specific to kinase of interest), ATP (at KM apparent, Sigma, A9187), and 0.002% Brij-35 is then added to each well to initiate the reaction. The final concentration of DMSO in the well is 4%. Generally, reactions are incubated for 1 to 1.5 hours at room temperature to obtain adequate conversion of peptide to phosphorylated product in the linear range of the reaction. Reactions are terminated with the addition of 45 μL of Stop Buffer (containing 20 mM EDTA). Plates are then read on the LabChip 3000 using a 12-sipper LabChip. % conversion values and % inhibition values are obtained as provided and IC50 curves of compounds are generated using GraphPad Prism Version 4 or 5.01, or XLfit Version 4.3.2. When using GraphPad Prism, a nonlinear curve fit using the sigmoidal dose response—variable slope fit was used to graph IC50 curves and determine IC50 values and hillslopes. When using XLfit, Fit Model 205 (4-Parameter Logistic Model) is used to generate and fit the IC50 curve.

IC50	SMILES
33 nM	CCn1ccc2cc(Nc3cc(C)ccn3)nc(N[C@H]3CC[C@@H](CO)C3)c2c1=O [compound 792]
1050 nM	Cc1ccnc(Nc2cc3ccn(CCO)c(=O)c3c(N)n2)c1 [compound 813]
27 nM	C[C@@H](CO)Nc1nc(Nc2cnccn2)cc2ccn(CCC#N)c(=O)c12 [compound 1003]
35 nM	CC(C)(C)Nc1nc(Nc2cc(C(C)(C)O)ncn2)cc2ccn(CCO)c(=O)c12 [compound 716]
94 nM	CC(C)(C)Nc1nc(Nc2cc(C(C)(C)O)c(F)cn2)cc2ccn(CC(N)=O)c(=O)c12 [compound 877]
< 5.65 nM	CC(C)(C)Nc1nc(Nc2cc(CNCCO)ccn2)cc2ccn(CCO)c(=O)c12 [compound 608]
13 nM	CC1(Cn2ccc3cc(-c4cnc(N)nc4)nc(NC(C)(C)C)c3c2=O)COC1 [compound 924]
1350 nM	CC(C)(C)Nc1nc(Nc2cc(C(C)(C)C)ccn2)cc2ccn(CCO)c(=O)c12 [compound 616]
10 nM	CC(C)(C)Nc1nc(-c2cnc(N)nc2)cc2ccn(CC3(CO)COC3)c(=O)c12 [compound 923]
94 nM	COC/C=C/c1cc(Nc2cc3ccn(CCO)c(=O)c3c(NC(C)(C)C)n2)ncn1 [compound 621]
69 nM	CC(C)(C)Nc1nc(Nc2cnccn2)cc2ccn(CCOCCO)c(=O)c12 [compound 1013]
108 nM	CCCn1ccc2cc(-c3cnc(N)nc3)nc(NC(C)(C)C)c2c1=O [compound 914]
30 nM	CC(O)c1cc(Nc2cc3ccn(CCO)c(=O)c3c(NC(C)(C)C)n2)ncn1 (stereo not drawn) [compound 727]
222 nM	CC(C)(C)Nc1nc(Nc2cc(-c3ccc4[nH]ncc4c3)ccn2)cc2ccn(CCO)c(=O)c12 [compound 851]
71 nM	[2H]C([2H])([2H])n1ccc2cc(Nc3cc(Cl)ccn3)nc(NC(C)(C)CO)c2c1=O [compound 786]
35 nM	CC(C)(C)Nc1nc(-c2cnc(N)nc2)cc2ccn(CC3CCCO3)c(=O)c12 (stereo not drawn) [compound 918]
23 nM	CC(C)(C)Nc1nc(-c2cnc(N)nc2)cc2ccn(CC(=O)O)c(=O)c12 [compound 667]
328 nM	CC(C)(C)Nc1nc(Nc2ccc(F)cn2)cc2ccn(CCO)c(=O)c12 [compound 696]
169 nM	CC(C)(C)Nc1nc(Nc2cc(C(C)(C)C(=O)O)ccn2)cc2ccn(CCO)c(=O)c12 [compound 861]
60 nM	CC(C)(C)Nc1nc(-c2cnc(N)nc2)cc2ccn(CCN3CCOCC3)c(=O)c12 [compound 1033]
233 nM	CC(C)(C)Nc1nc(Nc2cc(N3CC(O)C3)ncn2)cc2ccn(CCO)c(=O)c12 [compound 631]
20 nM	CC(C)(C)Nc1nc(-c2cnc(N)nc2)cc2ccn(CCS(C)(=O)=O)c(=O)c12 [compound 737]
89 nM	CC(C)(Nc1nc(Nc2cnccn2)cc2ccn(CCO)c(=O)c12)C1CC1 [compound 670]

Further lines, the molecule ahead of its results:

SMILES	IC50
O=c1[nH]ccc2cc(Nc3cnccn3)nc(N[C@H]3CC[C@H](O)CC3)c12 [compound 976]	5 nM
Nc1ncc(-c2cc3ccn(C4COC4)c(=O)c3c(NC3CCC3)n2)cn1 [compound 772]	25 nM
CC1(Cn2ccc3cc(-c4cnc(N)nc4)nc(NC4CC(F)(F)C4)c3c2=O)COC1 [compound 758]	90 nM
[2H]C([2H])([2H])n1ccc2cc(Nc3cnccn3)nc(N[C@H]3CC[C@H](O)CC3)c2c1=O [compound 984]	29 nM
CCn1ccc2cc(Nc3cnccn3)nc(N[C@H]3CCC[C@H]3O)c2c1=O [compound 938]	24 nM
CC1(Nc2nc(-c3cnc(N)nc3)cc3ccn(CC4CCOCC4)c(=O)c23)CCC1 [compound 930]	81 nM
CCn1ccc2cc(Nc3cnccn3)nc(N[C@H](C)CO)c2c1=O [compound 963]	147 nM
O=c1c2c(N[C@H]3CC[C@@H](O)CC3)nc(Nc3cnccn3)cc2ccn1CC(F)F [compound 1022]	11 nM

same assay, conditions: read-out: Syk Enzyme IC50

IC50	SMILES
13 nM	Cc1ccnc(Nc2cc3ccn(CCO)c(=O)c3c(N[C@@H](C)CO)n2)c1 [compound 367]
42 nM	CN(C)CCn1ccc2cc(Nc3cc(Cl)ccn3)nc(N[C@H]3CC[C@@H](O)CC3)c2c1=O [compound 388]
95.6 nM	CCn1ccc2cc(Nc3cnccn3)nc(NC[C@H]3CC[C@@](C)(O)C3)c2c1=O [compound 417]
86 nM	Cc1ccnc(Nc2cc3ccn(C)c(=O)c3c(NC[C@@H](C)O)n2)c1 [compound 511]
54 nM	CCn1ccc2cc(Nc3cc(C)ccn3)nc(NC(C)(C)CO)c2c1=O [compound 492]

The remaining lines, values behind:

SMILES	IC50
CCOCCOc1ccc(Nc2nc(Nc3cc(C)ccn3)cc3ccn(C)c(=O)c23)cc1 [compound 334]	1720 nM
Cc1ccnc(Nc2cc3cc[nH]c(=O)c3c(N3CC[C@@H](CO)C3)n2)c1 [compound 399]	998 nM
CCN1CCN(CCc2ccc(Nc3nc(-c4cnc(OC)nc4)cc4c(F)c[nH]c(=O)c34)cc2)CC1 [compound 439]	474 nM
COc1cncc(-c2cc3cc[nH]c(=O)c3c(Nc3ccc(C4CCN(CC(O)CO)CC4)c(C)c3)n2)n1 (stereo not drawn) [compound 166]	3 nM
COc1cncc(-c2cc3cc[nH]c(=O)c3c(Nc3ccc(C4CCN(CCO)CC4)c(C)c3)n2)n1 [compound 143]	5 nM
O=c1[nH]ccc2cc(Nc3ccc(CCN4CCOCC4)cn3)nc(Nc3ccc(N4CCOCC4)cc3)c12 [compound 568]	549 nM
CC(C)CC(C)Nc1nc(Nc2ccccn2)cc2cc[nH]c(=O)c12 (stereo not drawn) [compound 275]	3200 nM
CCN1CCN(CCc2ccc(Nc3nc(Nc4ccc(Cl)cn4)cc4cc[nH]c(=O)c34)cc2)CC1 [compound 536]	398 nM
O=c1[nH]ccc2cc(Nc3ccc(C(F)(F)F)cn3)nc(Nc3ccc(N4CCOCC4)cc3)c12 [compound 577]	760 nM
CC(C)Nc1nc(Nc2cc(CO)ccn2)cc2cc[nH]c(=O)c12 [compound 510]	34 nM
CCNC(=O)Cn1ccc2cc(Nc3cc(C)ccn3)nc(NC(C)C)c2c1=O [compound 316]	270 nM
Cc1ccc(Nc2cc3cc[nH]c(=O)c3c(Nc3ccc(C4CCN(CC(N)=O)CC4)c(C)c3)n2)nc1 [compound 558]	489 nM
COc1cncc(-c2cc3cc[nH]c(=O)c3c(Nc3ccc(CCN4CCN(C(C)C)CC4)cc3)n2)n1 [compound 21]	86 nM
CN1CCC(c2ccc(Nc3nc(Nc4cnccn4)cc4ccn(C)c(=O)c34)cc2)CC1 [compound 344]	45 nM
Cn1ccc2cc(Nc3cc(Cl)ccn3)nc(NC3CCC3)c2c1=O [compound 544]	810 nM
COc1ccnc(Nc2cc3cc[nH]c(=O)c3c(Nc3ccc(C4CCN(C5CC5)CC4)c(C)c3)n2)c1 [compound 259]	255 nM
CN1CCN(C2CCC(c3ccc(Nc4nc(-c5cncnc5)cc5cc[nH]c(=O)c45)cc3)CC2)CC1 (stereo not drawn) [compound 104]	31 nM
Cn1ccc2cc(Nc3cnccn3)nc(Nc3cccc(S(C)(=O)=O)c3)c2c1=O [compound 390]	751 nM
COc1cncc(-c2cc3cc[nH]c(=O)c3c(Nc3ccc([C@H]4CC[C@H](N5CCOCC5)CC4)cc3)n2)n1 [compound 56]	358 nM
C[C@@H](O)CNc1nc(-c2cnc(N)nc2)cc2cc[nH]c(=O)c12 [compound 452]	140 nM
Cc1cc(Nc2nc(Nc3ccc(C#N)cn3)cc3cc[nH]c(=O)c23)ccc1N1CCO[C@H](C)C1 [compound 557]	3350 nM
COCCC(=O)N1CCC(c2ccc(Nc3nc(-c4cncc(OC)n4)cc4cc[nH]c(=O)c34)cc2)CC1 [compound 26]	72 nM
Cc1ccnc(Nc2cc3cc[nH]c(=O)c3c(NC(C)(C)CO)n2)c1 [compound 488]	21 nM
CNC(=O)c1ccc(Nc2nc(Nc3cc(C)ccn3)cc3ccn(C)c(=O)c23)cc1 [compound 342]	222 nM
CCn1ccc2cc(Nc3cnccn3)nc(N[C@H]3CCC[C@@H]3O)c2c1=O [compound 423]	52.4 nM
Cc1ccnc(Nc2cc3ccn(C)c(=O)c3c(Nc3cccc(C(N)=O)c3)n2)c1 [compound 507]	136 nM
C[C@@H](CO)Nc1nc(Nc2cnccn2)cc2ccn(C)c(=O)c12 [compound 327]	120 nM
